According to US10835506B2, “Treatment and prevention of muscle loss using L-ornithine in combination with at least one of phenylacetate and phenylbutyrate” (OCERA THERAPEUTICS, INC., priority 2015, dated 2020):

Test system: Fisher 344×Brown Norway (FBN) rat
Experiment: Treatment of sarcopenia (age-related muscle loss) in FBN hybrid rats
Assay type: in vivo
Details: middle age and/or old FBN hybrid rats; OP administered e.g. orally
Procedure: The Fisher 344×Brown Norway (FBN) rat model has been recommended by the National Institute on Aging (NIA) for age-related research. […] Significant muscle mass loss, a reduction in muscle CSA, and muscle fiber loss are expected in, for example, the quadriceps muscles of the aged rat.
OP is administered, for example orally, to young, middle age, and old FBN hybrid rats.

Substance: L-ornithine phenylacetate [OP]
- muscle mass loss: effective in reducing muscle mass loss
